Literature values, collected in patent US20040151761A1, “Methods and compositions utilizing astaxanthin” (priority 2003, published 2004).

Tests used:
[1] = system: chemical-induced carcinogenesis; conditions: mice; cited from earlier work
[2] = system: lymphocyte; conditions: rats; cited from earlier work
[3] = system: tumor necrosis factor (TNF); conditions: hamsters; cited from earlier work
[4] = system: IgG; conditions: dogs, 20 mg; cited from earlier work
[5] = system: human neuroblastoma cell; conditions: cited from earlier work
[6] = system: mouse splenocytes; conditions: cultured cell assay (Jyonouchi et al.); cited from earlier work
[7] = cited from earlier work

Structure (SMILES) | chemical-induced carcinogenesis [1] | lymphocyte proliferation [2] | production of tumor necrosis factor (TNF) by macrophages [3] | plasma IgG concentration versus un-supplemented animals [4] | human neuroblastoma cell proliferation [5] | in vitro antibody response of mouse splenocytes to T-dependent antigens [6] | conversion of beta-carotene to vitamin A ([7]; cats (Schweigert et al. 2002)) | absorption of beta-carotene ([7]; domestic cats (Chew et al. 2000))
CC1=C(/C=C/C(C)=C/C=C/C(C)=C/C=C/C=C(C)/C=C/C=C(C)/C=C/C2=C(C)C(=O)CCC2(C)C)C(C)(C)CCC1=O [canthaxanthin] | prevent chemical-induced carcinogenesis | increases lymphocyte proliferation | enhances the production of tumor necrosis factor (TNF) |  |  |  |  | 
CC1=C[C@H](O)CC(C)(C)[C@H]1/C=C/C(C)=C/C=C/C(C)=C/C=C/C=C(C)/C=C/C=C(C)/C=C/C1=C(C)C[C@@H](O)CC1(C)C [lutein] |  |  |  | higher concentrations of plasma IgG than un-supplemented animals |  |  |  | 
CC1=C(/C=C/C(C)=C/C=C/C(C)=C/C=C/C=C(C)/C=C/C=C(C)/C=C/C2=C(C)CCCC2(C)C)C(C)(C)CCC1 [beta-carotene] |  |  |  | higher concentrations of plasma IgG than un-supplemented animals | inhibit human neuroblastoma cell proliferation | increase in vitro antibody response | not accompanied by conversion of beta-carotene to vitamin A | readily absorb beta-carotene
